Reference: patent US20240000084A1, “ANTI[…], ANTIBACTERIAL AGENT, ANTIVIRAL AGENT, PATHOGEN DISPOSAL DEVICE, ANTI[…] PRODUCTION METHOD, ANTIBACTERIAL TREATMENT METHOD, VIRUS INACTIVATION METHOD, AND PATHOGEN DISPOSAL METHOD” (ACENET INC., priority 2020, published 2024)
Where two headings read alike, the source gives them in different places.

Assays:
[1] = Lewis acidity measuring method (1): reaction rate constant of reaction between CoTPP and oxygen in the presence of a Lewis acid; assay type: physicochemical
Excerpt: Chem. Soc. […] Specifically, the Lewis acidity can be measured by the following “Lewis acidity measuring method (1)”, which is herein incorporated by reference.
As to acetonitrile (MeCN) that contains cobalt tetraphenylporphyrin, saturated O2, and an object whose Lewis acidity is to be measured (e.g., a cation of a metal or the like, represented by M^n+ in the following chemical reaction formula (1a)) in the following chemical reaction formula (1a), the change of the ultraviolet-visible absorption spectrum is measured at room temperature. On the basis of the obtained reaction rate constant (kcat), the ΔE value (eV), which is an indicator of the Lewis acidity, can be calculated. The higher the kcat, the stronger the Lewis acidity. Furthermore, the Lewis acidity of an organic compound can be estimated from the energy level of the lowest unoccupied molecular orbital (LUMO) calculated by the quantum chemical calculation. The higher the value at the positive side, the stronger the Lewis acidity.
In the following table, the numerical value expressed in the unit “kcat, M^−2s^−1” is a reaction rate constant of a reaction between CoTPP and oxygen in the presence of a Lewis acid. The numerical value expressed in the unit “LUMO, eV” is the energy level of LUMO.

[2] = system: bacteria A (any one of Staphylococcus aureus, Escherichia coli MV1184, Streptococcus pyogenes, Streptcoccus mutans, Porphyromonas gingivalis, Treponema …); assay: Bactericidal action on bacteria A-containing material (Experimental Example 1); assay type: cell-based; settings: chlorine dioxide generated by bringing ozone gas into contact with a radical source; cultured after contact

## CC(C)(C)CC(C)(C)c1ccc(OCCOCC[N+](C)(C)Cc2ccccc2)cc1.[Cl-] [benzethonium chloride]
[1]
  kcat, reaction rate constant of reaction between CoTPP and oxygen in the presence of a Lewis acid: 0.24 M^−2 s^−1

## [O][Cl+][O-] [chlorine dioxide]
[2]
  bactericidal effect on bacteria A: exhibits a bactericidal effect

## CCCC[N+](CCCC)(CCCC)CCCC.F[P-](F)(F)(F)(F)F [tetrabutylammonium hexafluorophosphate]
[1]
  kcat, reaction rate constant of reaction between CoTPP and oxygen in the presence of a Lewis acid: >0.1 M^−2 s^−1

## benzalkonium chloride
[1]; acetonitrile, saturated O2, room temperature
  kcat, reaction rate constant of reaction between CoTPP and oxygen in the presence of a Lewis acid: 0.18 M^−2 s^−1
